In assay [1] the target is T1, hENBT1 (Homo sapiens, UniProt Q8NBI5).
T1 construct: Oligonucleotides corresponding to the coding region of SLC43A3 (NM_001278201) or slc43a3 (NM_021398); expressed in transfected cells; HEK293-hSLC43A3
T1 sequence (Q8NBI5 1-491): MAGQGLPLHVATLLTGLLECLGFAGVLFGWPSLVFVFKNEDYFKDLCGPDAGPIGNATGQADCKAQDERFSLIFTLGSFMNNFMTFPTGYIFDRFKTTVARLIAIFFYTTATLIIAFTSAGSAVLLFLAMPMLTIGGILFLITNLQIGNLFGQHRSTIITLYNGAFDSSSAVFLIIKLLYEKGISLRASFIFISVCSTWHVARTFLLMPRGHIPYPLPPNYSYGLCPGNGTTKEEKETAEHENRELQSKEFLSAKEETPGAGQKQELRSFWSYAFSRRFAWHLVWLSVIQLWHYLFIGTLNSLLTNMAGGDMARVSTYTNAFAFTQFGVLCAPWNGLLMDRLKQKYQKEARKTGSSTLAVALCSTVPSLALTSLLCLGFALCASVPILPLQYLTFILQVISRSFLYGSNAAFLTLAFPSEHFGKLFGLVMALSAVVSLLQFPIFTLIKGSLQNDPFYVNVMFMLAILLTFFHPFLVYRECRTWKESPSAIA
The assay can be described thus: Inhibition of ENBT1-mediated substrate uptake in HEK293-hSLC43A3 cells. Format: cell-based. As to the method: (§1) Harvested cells were suspended in nominally sodium-free N-methyl-D-glucamine (NMG) buffer (140 mM NMG, 5 mM KCl, 4.2 mM KHCO3, 0.36 mM K2HPO4, 0.44 mM KH2PO4, 0.5 mM MgCl2, 1.3 mM CaCl2, 10 mM HEPES, pH 7.4), to minimize potential contribution of sodium-dependent concentrative nucleoside transporter-mediated uptake. Additionally, cells were incubated for 15 minutes at room temperature with 10 μM dipyridamole (DY), an equilibrative nucleoside transporter (ENT) inhibitor, to block equilibrative nucleoside transporter–mediated uptake. The substrate uptake assay was initiated by adding 250 μL cell suspension to 250 μL [^3H] labeled substrate, layered over 21:4 silicone:mineral oil (200 μL) in 1.5 mL microcentrifuge tubes (conducted at room temperature). The uptake reaction was terminated after 2 seconds by centrifugation of the cells through the oil layer at ~10,000 g. This is the minimum incubation time achievable with this oil-stop technique, and it was found in previous studies that these short incubation times were necessary to assess the kinetics of this transporter. The aqueous layer was removed via vacuum-powered aspirator, and the tube was washed with 1 mL of NMG buffer prior to removal of the oil layer. The resulting cell pellet was digested in 250 μL 1 M NaOH overnight (~16 hours), with 220 μL aliquots of digested cells assessed for radioactive content using standard liquid scintillation counting techniques in a Beckman Coulter LS6500 scintillation system (Brea, CA).
(§2) To assess the ability of compounds to inhibit substrate uptake, cells were incubated with the inhibitor for 15 minutes prior to initiating the uptake assay, or exposed to the cells simultaneously with the radiolabelled substrate. […] After subtraction of the non-mediated uptake component, the degree of inhibition was calculated as the ratio of cellular accumulation in the presence of test compound to that measured in its absence (X 100).
(§3) Each assay was repeated 5–6 times using independent cell isolations and reagent preparations. In addition, within each assay, there were two or three technical replicates (using the same reagents and cells) that were averaged to obtain a single data point. Nonlinear curves were fitted to data (presented as mean ± SD from the 5–6 independent experiments), and statistical analyses were done using GraphPad Prism 10 software. In all cases, if the P-value determined from a statistical test was less than 0.05, the null hypothesis was rejected and the alternative hypothesis was favoured. Significant differences between groups were assessed using either Student’s t-test or ordinary one- or two-way analysis of variance (ANOVA) followed by a post hoc Šidák multiple comparison test, as appropriate. For influx and cell viability analyses, significant differences in Km and EC50 value, respectively, between the hENBT1 and mENBT1 data sets, were determined by the extra sum-of-squares F test. For inhibition analyses, the Ki values were determined from the IC50 values using the specified substrate concentration [S], based on the Cheng-Prusoff equation Ki = IC50/(1 + [S]/Km) and experimentally obtained Km values.

Assay [2] addresses T2, mENBT1 (Mus musculus, UniProt A2AVZ9).
T2 construct: Oligonucleotides corresponding to the coding region of SLC43A3 (NM_001278201) or slc43a3 (NM_021398); expressed in transfected cells; HEK293-mslc43a3
T2 sequence (A2AVZ9 1-502): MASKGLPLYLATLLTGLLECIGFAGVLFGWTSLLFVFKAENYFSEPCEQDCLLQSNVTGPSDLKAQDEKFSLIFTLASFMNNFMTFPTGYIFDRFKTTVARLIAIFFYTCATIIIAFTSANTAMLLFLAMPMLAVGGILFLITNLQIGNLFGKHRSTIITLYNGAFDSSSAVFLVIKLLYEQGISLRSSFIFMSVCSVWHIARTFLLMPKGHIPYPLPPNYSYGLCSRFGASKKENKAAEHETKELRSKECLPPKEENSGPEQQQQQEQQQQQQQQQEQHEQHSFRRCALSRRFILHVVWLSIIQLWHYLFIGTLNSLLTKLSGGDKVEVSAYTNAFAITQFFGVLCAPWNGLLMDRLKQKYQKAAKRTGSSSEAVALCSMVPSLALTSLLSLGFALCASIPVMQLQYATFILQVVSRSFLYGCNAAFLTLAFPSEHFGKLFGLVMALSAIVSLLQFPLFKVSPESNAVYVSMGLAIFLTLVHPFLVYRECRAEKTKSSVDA
The assay can be described thus: Inhibition of ENBT1-mediated substrate uptake in HEK293-mslc43a3 cells. Format: cell-based. As to the method:
as §1, §2, §3

The structures appear in SMILES notation. Read-outs that look alike come from different tables or passages of the source.

The results in this text go back to publication PMC11449324, “Functional comparison of human and murine equilibrative nucleobase transporter 1” (PLOS ONE, 2024).

The term Ki denotes the dissociation constant of the complex between target and ligand, obtained from inhibition or displacement.

Consider `Sc1ncnc2nc[nH]c12` [6-MP, 6-Mercaptopurine], for which the Ki in assay [1] (HEK293-hSLC43A3, 30 μM [3H]adenine, 2 seconds, Cheng-Prusoff, read-out: Ki for inhibition of ENBT1-mediated [3H]adenine uptake) was 5900 ± 700 µM; in assay [2] (HEK293-mslc43a3, 30 μM [3H]adenine, 2 seconds, Cheng-Prusoff, read-out: Ki for inhibition of ENBT1-mediated [3H]adenine uptake), 7400 ± 1300 µM. The “inhibition of ENBT1-mediated [3H]adenine uptake” value in assay [1] (at highest concentration of 6-MP tested (1 mM), HEK293-hSLC43A3) is reported as “complete inhibition was not obtained”; in assay [2] (at highest concentration of 6-MP tested (1 mM), HEK293-mslc43a3), “complete inhibition was not obtained”. For the same compound, the “Ki relative to its Km for the transporter” value in assay [1] (hENBT1) and in assay [2] (mENBT1) was 30 fold each time.
Consider `Nc1ncnc2[nH]cnc12` [adenine, Adenine], for which the Ki was 25 ± 9 µM in assay [1] and 51 ± 13 µM in assay [2]. Also, the “inhibition of ENBT1-mediated [14C]6-MP uptake” value is recorded as “near complete inhibition” in assay [1] (at 1 mM adenine, HEK293-hSLC43A3) and “near complete inhibition” in assay [2] (at 1 mM adenine, HEK293-mslc43a3).
